Assay results taken from paper PMC12073194, “Echinacoside Ameliorates UVB-Induced Skin Damage Through Selective Inhibition of the Cutaneous TRPV3 Channel” (Molecules, 2025).

Molecular target: T1, TRPV3 (hTRPV3, transient receptor potential vanilloid 3) (Homo sapiens, UniProt Q8NET8)
T1 construct: hTRPV3 (NM_145068.4)
T1 sequence (Q8NET8 1-790): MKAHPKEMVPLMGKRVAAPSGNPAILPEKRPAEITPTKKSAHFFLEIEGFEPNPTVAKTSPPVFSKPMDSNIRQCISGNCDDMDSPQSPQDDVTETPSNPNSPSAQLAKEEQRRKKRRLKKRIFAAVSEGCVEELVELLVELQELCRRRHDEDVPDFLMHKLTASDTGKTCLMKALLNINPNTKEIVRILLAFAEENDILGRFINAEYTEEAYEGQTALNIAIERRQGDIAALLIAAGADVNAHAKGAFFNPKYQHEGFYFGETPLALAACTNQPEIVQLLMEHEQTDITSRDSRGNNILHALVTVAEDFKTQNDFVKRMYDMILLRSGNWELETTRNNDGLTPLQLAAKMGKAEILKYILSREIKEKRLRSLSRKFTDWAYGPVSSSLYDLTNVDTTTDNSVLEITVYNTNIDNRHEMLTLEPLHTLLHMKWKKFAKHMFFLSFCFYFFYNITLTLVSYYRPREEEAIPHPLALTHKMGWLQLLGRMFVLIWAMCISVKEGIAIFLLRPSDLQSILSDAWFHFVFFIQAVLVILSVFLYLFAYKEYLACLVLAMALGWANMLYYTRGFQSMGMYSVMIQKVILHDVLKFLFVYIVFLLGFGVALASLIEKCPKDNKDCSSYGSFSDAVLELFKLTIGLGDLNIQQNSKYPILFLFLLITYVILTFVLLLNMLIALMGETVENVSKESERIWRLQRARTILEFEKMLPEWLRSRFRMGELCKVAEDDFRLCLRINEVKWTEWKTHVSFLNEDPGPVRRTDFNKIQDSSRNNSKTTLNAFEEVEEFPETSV
Test: whole-cell and inside-out single-channel patch clamp in HEK293T cells; site-directed mutagenesis
Assay type: cell-based

Structure (SMILES): C[C@@H]1O[C@@H](O[C@@H]2[C@@H](O)[C@H](OCCc3ccc(O)c(O)c3)O[C@H](CO[C@@H]3O[C@H](CO)[C@@H](O)[C@H](O)[C@H]3O)[C@H]2OC(=O)/C=C/c2ccc(O)c(O)c2)[C@H](O)[C@H](O)[C@H]1O [echinacoside]
- IC50: 21.9 ± 1.28 µM
